{
  "source": "patent US8597693B2",
  "about": "“Pharmaceutical composition with immunomodulating function” (Industrial Technology Research Institute, priority 2010, dated 2013)",
  "key": {"TNF-α [1]": {"system": "TNF-α", "assay": "TNBS enteritis mouse model, TNF-α in colon infusion", "format": "in vivo, BABL/c mice", "settings": "0.6 mg/kg fed + 1.75 mg of TNBS; colon infusion after 48 hours; negative value = enhanced excretion", "description": "(§1) The BABL/c mice were categorized into 4 groups. Each group had 6 […]."}, "IL-6 [2]": {"system": "IL-6", "assay": "TNBS enteritis mouse model, IL-6 in colon infusion", "format": "in vivo, BABL/c mice", "settings": "0.6 mg/kg fed + 1.75 mg of TNBS; colon infusion after 48 hours; negative value = enhanced excretion", "description": "as §1"}, "[3]": {"system": "carrageenan induced hindpaw edema", "assay": "Carrageenan induced hindpaw edema in a rat model", "format": "in vivo, Long-Evan rats", "settings": "3 mg/kg fed 1 hour before carrageenan (positive control), left hindpaw volume", "method": "Long-Evan rats were fed with the extract (a) in Example 5 (i) in an amount of 250 mg/kg, 500 mg/kg, 1000 mg/kg, respectively. The positive control was fed with 3 mg/kg of indomethacin (NSAID). The negative control was fed with 10 ml/kg of 2% Tween 80 as a carrier. After 1 hour, the rats were injected 0.1 ml of 1% carrageenan on the left hindpaw. The volume of the rat's left hindpaw was measured by plethysmometer (Stoelting) at the 0, 1.5th, and 3rd hour after injection. The inhibition was calculated by the formula: Inhibition(%)=(Nt−Nv)/Nv×100\nIn the formula, Nt represents the left hindpaw volume of the rat fed with the ethanol extract; Nv represents the left hindpaw of the rat fed with the carrier."}, "TNF-α [4]": {"system": "TNF-α", "assay": "Inhibition of TNF-α excretion in LPS-stimulated U937 cells", "format": "cell-based", "settings": "Homo sapiens, U-937; PMA-activated U937, 30 minutes preincubation, LPS 4 hours, ELISA of supernatant", "method": "The cell line, U937 (human monocyte cell line), was incubated in RPMI medium containing 50 ng/ml PMA (phorbol 12-myristate 13-acetate) (Sigma) and 10% fetal bovine serum (Moor et. al., Roswell Park Memorial Institute) for 24 hours. The cell line was then moved to the RPMI medium without PMA for further 48 hours. The activated U937 was seeded into a 96-well plate in a concentration of 1.6×10^5 cell/well. The wells were added 12.5 μg/ml, 25 μg/ml, 50 μg/ml and 100 μg/ml of kaerophyllin and 1 μg/ml, 3 μg/ml, 10 μg/ml and 30 μg/ml of isokaerphyllin and 10 μl of buffer, respectively. Each well was adjusted to a final volume of 190 μl. The plate was reacted under 37° C. for 30 minutes. Each well was added 10 μl of 20 μg/ml LPS to stimulate cells. After 4 hours under 37° C., the plate was centrifuged to collect the supernatants.\nThe amount of TNF-α in the supernatant was measured by ELISA (R&D System®) based on the control (DMSO). Meanwhile, the cell viability was measured by MTT assay (Sigma)."}, "IL-6 [5]": {"system": "IL-6", "assay": "Inhibition of IL-6 excretion in LPS-stimulated U937 cells", "format": "cell-based", "settings": "Homo sapiens, U-937; PMA-activated U937, 30 minutes preincubation, LPS 16-18 hours, ELISA of supernatant", "method": "The cell line, U937, was cultured like Example 13. The activated U937 was then seeded in a 96-well plate in a concentration of 1.6×10^5 cell/well. The wells were added 6.3 μg/ml, 12.5 μg/ml, 25 μg/ml and 50 μg/ml of kaerophyllin and 3.8 μg/ml, 7.5 μg/ml, 15 μg/ml and 30 μg/ml of isokaerphyllin and 10 μl of buffer, respectively. Each well was adjusted to a final volume of 190 μl. The plate was put under 37° C. for 30 minutes. Each well was added 10 μl of 20 μg/ml LPS to stimulate cells. After 16-18 hours under 37° C., the plate was centrifuged to collect the supernatants.\nThe amount of IL-6 in the supernatant was measured by ELISA (R&D System®) based on the control (DMSO). Meanwhile, the cell viability was measured by MTT assay (Sigma)."}},
  "data": [
    {"smiles": "C[C@@H]1C[C@H]2[C@@H]3CCC4=CC(=O)C=C[C@]4(C)[C@@]3(F)[C@@H](O)C[C@]2(C)[C@@]1(O)C(=O)CO", "note": "[DEX, dexamethasone]", "values": [
      {"measurement": "Inhibition of TNF-α (%)", "setting": "TNF-α [1]", "value": 9, "unit": "%"},
      {"measurement": "Inhibition of IL-6 (%)", "setting": "IL-6 [2]", "value": "−55", "unit": "%"}
    ]},
    {"smiles": "COc1ccc2c(c1)c(CC(=O)O)c(C)n2C(=O)c1ccc(Cl)cc1", "note": "[indomethacin]", "values": [
      {"measurement": "Inhibition at 0 hour (%)", "setting": "[3]; 0 hour", "value": 0, "unit": "%"},
      {"measurement": "Inhibition at the 1.5th hour (%)", "setting": "[3]; 1.5th hour", "value": 21, "unit": "%"},
      {"measurement": "Inhibition at the 3rd hour (%)", "setting": "[3]; 3rd hour", "value": 52, "unit": "%"}
    ]},
    {"smiles": "COc1ccc(/C=C2\\C(=O)OC[C@@H]2Cc2ccc3c(c2)OCO3)cc1OC", "note": "[isokaerophyllin, cis-(3,4-dimethoxybenzylidene)-β-(3,4-methylenedioxylbenzyl)-γ-butyrolactone]", "values": [
      {"measurement": "IC50", "setting": "TNF-α [4]", "value": "18 ± 4", "unit": "µg/mL"},
      {"measurement": "IC50", "setting": "IL-6 [5]", "value": "24 ± 6", "unit": "µg/mL"}
    ]}
  ]
}
